Results on 45 compounds are retold here after a melting point compilation (Tetko et al.).

The structures appear in SMILES notation.

In turn, `CC12CCC(O)CC1=CCC1C2CCC2(C)C1CCC2(C)O` (stereo not given) came in with a melting point of 206 °C. On to `Cc1cccc(NC(=O)C(F)(F)C(F)(F)C(F)(F)C(F)(F)C(F)(F)C(F)(F)C(F)(F)C(F)(F)F)c1`, for which the melting point came to 97 °C. `CCCCCC#CCC(=O)O`: the melting point came out at 17 °C. With `CCCCCCCCCC(=O)OCC`, the melting point was -20 °C. In the case of `O=C(O)c1cccc2c1OCCO2`, the melting point fell in the range of 189 to 191 °C. For the compound `FC(F)(F)c1ccccc1-n1ccnc1`, the melting point amounted to 52 °C. `NC(=O)c1ccco1`: the melting point came to 141 °C.

`O=[N+]([O-])c1ccc(C=NNc2ccccc2)cc1`: the melting point came to 166 °C. Take `CC1CS1` (stereo not given): the melting point was -91 °C. `Oc1cc(Br)cc(Br)c1`: the melting point turned out to be 81 °C. Take `COc1cc(C=CC=O)ccc1O`: the melting point was determined as 84 °C. The figure for `N#CC=Cc1cc(C(F)(F)F)cc(C(F)(F)F)c1` is 80 °C; for `CC(C)(C)OC(=O)NCc1ccc(CO)cc1` it is 98 to 99 °C; for `Oc1ccc(C=Cc2cc(O)cc(O)c2)cc1` it is 254 °C. `CCOc1ccc(-c2nnc3sc(-c4ccc(Cl)cc4)nn23)cc1`: the melting point turned out to be 113 °C. `CC(C(=O)O)P(=O)(O)O` (stereo not given) returned a melting point of 120 °C. Compound `CC1(C)CC1` showed a melting point of -109 °C.

With `NC(CS(=O)(=O)c1ccc(Cl)cc1)=NO`, the melting point was 202 to 205 °C.

Turning to `CCCCC(O)(CCCC)CCCC`, the melting point came out at 20 °C. Take `CCCCCCO`: the melting point was -44.6 °C.

As for `COC1=C(OC)C(C(CBr)OC(C)=O)OC1=O` (stereo not given), the melting point was found to be 74 °C.

In turn, `CSc1nc2ccccc2c(=O)n1C` had a melting point of 65 to 67 °C. `Cn1c(=O)c(C2=NNC(=O)C2=NNc2ccccc2)c(O)c2ccccc21`: the melting point worked out at 213 °C. Consider `Cn1c(CO)cnc1S`, for which the melting point was 220 to 222 °C.

In turn, `Cc1ccc(C(N)=NO)cc1` had a melting point of 136 to 137 °C.

`C[C@]12CCC(=O)C=C1CC[C@@H]1[C@@H]2CC[C@@]2(C)[C@H]1CC[C@]2(O)C#Cc1ccccc1`: the melting point lay within 185 to 187 °C. `O=C1C2C3C=CC(C3)C2C(=O)N1O` (stereo not given) returned a melting point of 167 to 170 °C. `OCCN1CCN(CCO)CC1`: the melting point is 135 °C. `O=C(O)CSCC(=O)O` gave a melting point of 129 °C.

In turn, `COc1cc2c(cc1OCc1ccccc1)C(CC(C)C)N(Oc1c([N+](=O)[O-])cc([N+](=O)[O-])cc1[N+](=O)[O-])CC2` (stereo not given) returned a melting point of 173 °C. In the case of `Clc1cc2nsnc2cc1CBr`, the melting point lay within 75 to 77 °C. Take `Cc1nc2ccc(S(=O)(=O)Cl)cc2s1`: the melting point lay in the range of 98 to 101 °C. The figure for `CC(/C=N/NC(N)=O)=N\NC(N)=O` is 255 °C; for `CC(=O)NC1C(OCc2ccccc2)OC2COC(c3ccccc3)OC2C1OC(C)C(=O)O` (stereo not given) it is 220 to 222 °C; for `CCCCCCCC(=O)Cl` it is -63 °C. As for `COC(=O)c1ccc(Cl)c(Cl)c1`, the melting point is 45 °C. As for `CC(=O)OCC(=O)O`, the figure is 67.5 °C; as for `COc1ccc(-c2csnn2)cc1`, 89 to 93 °C; as for `O=C1C=C(NCCNc2ccccc2)C(=O)c2ccccc21`, 140 to 142 °C. On to `Clc1ccc(Br)s1`, for which the melting point is -20 °C. As for `O=C(C=Cc1ccc(-c2ccccc2)o1)c1ccco1`, the figure is 99 to 101 °C; as for `CC(CC(=O)O)CC(C)(C)C` (stereo not given), -70 °C; as for `Cc1c(C)c(C)c2c(c1C)CC2`, 139 °C.

As for `CCOc1ccc(N=C(CNc2ccc(OCC)cc2)Nc2ccc(OCC)cc2)cc1`, the melting point amounted to 113 °C. As for `COc1ccc(CNC(=O)c2cc([N+](=O)[O-])cc([N+](=O)[O-])c2)cc1`, the figure is 151 °C.

What is called melting point is the temperature, or range, at which the solid turns liquid.
